# Laboratory results taken from publication PMC6116705, “Design, synthesis, in vitro antiproliferative activity and apoptosis-inducing studies of 1-(3′,4′,5′-trimethoxyphenyl)-3-(2′-alkoxycarbonylindolyl)-2-propen-1-one derivatives obtained by a molecular hybridisation approach” (Journal of Enzyme Inhibition and Medicinal Chemistry, 2018).
# Entries after “also recorded” stand apart in the source; their conditions may differ.
# Legend:
# U-937 cells = assay: Cell cycle phase distribution and apoptosis, flow cytometry (propidium iodide) and fluorescence microscopy, U-937; format: cell-based, human
# Description: Fluorescent microscopy and flow cytometric analysis of propidium iodide-stained cells were performed as described. Briefly, cells were harvested and fixed in 3% paraformaldehyde and incubated at room temperature for 10 min. The fixative was removed, and the cells were washed with PBS, resuspended in 30–50 μL of PBS containing 20 μg/mL bis-benzimide trihydrochloride (Hoechst 33258) and incubated at room temperature for 15 min. Stained nuclei were visualized using a Zeiss fluorescence microscope.
# Flow cytometric analysis was carried out using a BD FACSVerse™ cytometer (BD Biosciences, San Jose, CA, USA).
# [1] = system: human colon adenocarcinoma (HT29) cells; assay: Antiproliferative assay, cell counting (Coulter Counter), HT29; format: cell-based; conditions: for fold more potent than CA-4: HT29 cell line, ratio of IC50 values
# Description: Human cervix carcinoma (HeLa), human colon carcinoma (HT29), human breast carcinoma (MCF-7) and human lymphoma (HL-60) cells (3–5 × 10^4 cells) and a serial (five-fold) dilution of the test compounds were added to a 96-well microtiter plate. The cells were incubated for 72–96 h (depending on the tumor cell line) at 37 °C in a humidified 5% CO2 atmosphere. At the end of the incubation period, the cells were counted in a Coulter Counter (Coulter Electronics Ltd, Harpenden Herts, UK). […] The IC50 values represent the average (±standard deviation) of at least two to four independent experiments.
# [2] = system: human peripheral blood mononuclear cells (PBMC); assay: Cytotoxicity on normal PBMC (quiescent or PHA-activated); format: cell-based; conditions: up to 10 μM, 24 h
# Description: U-937 (human myeloid leukaemia) cells from DSMZ (German Collection of Microorganisms and Cell Cultures, Braunschweig, Germany) and U-937 cells overexpressing human Bcl-2 protein (designated U-937/Bcl-2, donated by Dr Jacqueline Bréard, INSERM U749, Faculté de Pharmacie Paris-Sud., Châtenay-Malabry, France) were cultured in RPMI-1640 medium containing 10% (v/v) heat-inactivated foetal bovine serum, 100 μg/mL streptomycin and 100 U/mL penicillin, incubated at 37 °C in a humidified atmosphere containing 5% CO2 as described. The functioning of U-937/Bcl-2 cells was tested using the cytotoxic agent 1-β-D-arabino-furanosylcytosine as previously described. Human peripheral blood mononuclear cells (PBMC) were isolated from heparin-anticoagulated blood of healthy volunteers by centrifugation with Ficoll-Paque Plus (GE Healthcare Bio-Sciences AB, Uppsala, Sweden). PBMC were also stimulated with phytohemagglutinin (2 μg/mL) for 48 h before the experimental treatment. The trypan blue dye exclusion method was used for counting the living/dead cells by a hematocytometer with 95% viability in all experiments. The cytotoxicity of compounds was evaluated by the colorimetric 3-(4,5-dimethyl-2-thiazolyl-)-2,5-diphenyl-2H-tetrazolium bromide (MTT) assay as previously described. […] After the addition of MTT (0.5 mg/mL), cells were incubated at 37 °C for 4 h. Sodium dodecyl sulphate (10% w/v) in 0.05 M HCl was added to the wells and then incubated at room temperature overnight in the dark. Absorbance was measured at 570 nm. […] Values are mean ± SE from at least three independent experiments, each performed in triplicate. Compounds were dissolved in DMSO and kept in the dark at 25 °C.
# [3] = system: tubulin (colchicine site); assay: Inhibition of [3H]colchicine binding to tubulin; parameters: species or system bovine; conditions: tubulin 1 µM, [3H]colchicine 5 µM, compound 5 µM
# Description: (§1) To evaluate the effect of the compounds on tubulin assembly in vitro[40], varying concentrations of compounds were preincubated with 10 μM bovine brain tubulin in 0.8M monosodium glutamate (pH adjusted to 6.6 with HCl in a 2.0M stock solution) at 30 °C and then cooled to 0 °C. After addition of 0.4 mM GTP, the mixtures were transferred to 0 °C cuvettes in a recording spectrophotometer and warmed to 30 °C. Tubulin assembly was followed turbidimetrically at 350 nm. […] The capacity of the test compounds to inhibit colchicine binding to tubulin was measured as described. The reaction mixtures contained 1 μM tubulin, 5 μM [^3H]colchicine and 5 μM test compound.
# [4] = system: human myeloid leukaemia U-937 cells; assay: MTT cytotoxicity assay, U-937; format: cell-based; conditions: U-937, MTT, 72 h, read-out: IC50, inhibition of cell growth
# Description: U-937 (human myeloid leukaemia) cells from DSMZ (German Collection of Microorganisms and Cell Cultures, Braunschweig, Germany) and U-937 cells overexpressing human Bcl-2 protein (designated U-937/Bcl-2, donated by Dr Jacqueline Bréard, INSERM U749, Faculté de Pharmacie Paris-Sud., Châtenay-Malabry, France) were cultured in RPMI-1640 medium containing 10% (v/v) heat-inactivated foetal bovine serum, 100 μg/mL streptomycin and 100 U/mL penicillin, incubated at 37 °C in a humidified atmosphere containing 5% CO2 as described. The functioning of U-937/Bcl-2 cells was tested using the cytotoxic agent 1-β-D-arabino-furanosylcytosine as previously described. Human peripheral blood mononuclear cells (PBMC) were isolated from heparin-anticoagulated blood of healthy volunteers by centrifugation with Ficoll-Paque Plus (GE Healthcare Bio-Sciences AB, Uppsala, Sweden). PBMC were also stimulated with phytohemagglutinin (2 μg/mL) for 48 h before the experimental treatment. The trypan blue dye exclusion method was used for counting the living/dead cells by a hematocytometer with 95% viability in all experiments. The cytotoxicity of compounds was evaluated by the colorimetric 3-(4,5-dimethyl-2-thiazolyl-)-2,5-diphenyl-2H-tetrazolium bromide (MTT) assay as previously described. Briefly, 5 × 10^3 exponentially growing cells were seeded in 96-well microculture plates with increasing concentrations of compounds for 72 h. After the addition of MTT (0.5 mg/mL), cells were incubated at 37 °C for 4 h. Sodium dodecyl sulphate (10% w/v) in 0.05 M HCl was added to the wells and then incubated at room temperature overnight in the dark. Absorbance was measured at 570 nm. […] Values are mean ± SE from at least three independent experiments, each performed in triplicate. Compounds were dissolved in DMSO and kept in the dark at 25 °C.
# bovine brain tubulin = assay: Inhibition of tubulin polymerisation (turbidimetric tubulin assembly); format: biochemical; conditions: for IC50: tubulin 10 µM, 20 min at 30 °C, read-out: Tubulin assembly IC50±SD
# Description: as §1
Compound,"% G1 (U-937 cells; U-937, 24 h, 3 µM) [%]","% G2-M (U-937 cells; U-937, 24 h, 3 µM) [%]","% S (U-937 cells; U-937, 24 h, 3 µM) [%]","% Sub-G1 (U-937 cells; U-937, 24 h, 3 µM) [%]","% G1 (U-937 cells; U-937, 24 h, 10 µM) [%]","% G2-M (U-937 cells; U-937, 24 h, 10 µM) [%]","% S (U-937 cells; U-937, 24 h, 10 µM) [%]","% Sub-G1 (U-937 cells; U-937, 24 h, 10 µM) [%]","% G1 (U-937 cells; U-937, 48 h, 3 µM) [%]","% G2-M (U-937 cells; U-937, 48 h, 3 µM) [%]","% S (U-937 cells; U-937, 48 h, 3 µM) [%]","% Sub-G1 (U-937 cells; U-937, 48 h, 3 µM) [%]","% G1 (U-937 cells; U-937, 48 h, 10 µM) [%]","% G2-M (U-937 cells; U-937, 48 h, 10 µM) [%]","% S (U-937 cells; U-937, 48 h, 10 µM) [%]","% Sub-G1 (U-937 cells; U-937, 48 h, 10 µM) [%]","% G1 (U-937 cells; U-937, 72 h, 3 µM) [%]","% G2-M (U-937 cells; U-937, 72 h, 3 µM) [%]","% S (U-937 cells; U-937, 72 h, 3 µM) [%]","% Sub-G1 (U-937 cells; U-937, 72 h, 3 µM) [%]",further results
"CCOC(=O)c1[nH]c2ccc(OC)cc2c1/C=C/C(=O)c1cc(OC)c(OC)c(OC)c1 [Compound 9d, (E)-Ethyl 5-methoxy-3-(3-oxo-3-(3,4,5-trimethoxyphenyl)prop-1-en-1-yl)-1H-indole-2-carboxylate]",52.3 ± 0.2,21.2 ± 0.4,21.8 ± 0.0,3.5 ± 0.3,44.9 ± 0.6,24.8 ± 0.3,22.9 ± 0.4,5.6 ± 0.5,52.9 ± 0.9,18.3 ± 0.3,25.8 ± 0.5,2.3 ± 0.1,55.3 ± 0.7,16.9 ± 0.5,23.1 ± 0.1,4.1 ± 0.4,53.6 ± 2.4,15.4 ± 1.0,21.3 ± 1.0,7.9 ± 0.2,"% G1 (U-937 cells; U-937, 72 h, 10 µM): 55.1 ± 0.0%; % G2-M (U-937 cells; U-937, 72 h, 10 µM): 15.5 ± 0.8%; % S (U-937 cells; U-937, 72 h, 10 µM): 22.6 ± 0.7%; % Sub-G1 (U-937 cells; U-937, 72 h, 10 µM): 5.4 ± 0.2%; apoptosis induction (fluorescence microscopy and flow cytometry) (U-937 cells; U-937 cells): not an apoptotic inducer; fold more potent than CA-4 [1]: 8–24 fold; Toxicity to normal PBMC [2]: devoid of significant cytotoxic activity; also recorded: no appreciable toxicity; Colchicine binding % ±SD (inhibition) [3]: 9.6 ± 2%; IC50 [4]: 2.9 ± 0.7 µM; IC50 (bovine brain tubulin): > 20 µM"
"COC(=O)c1[nH]c2cc(OC)ccc2c1/C=C/C(=O)c1cc(OC)c(OC)c(OC)c1 [Compound 9e, (E)-Methyl 6-methoxy-3-(3-oxo-3-(3,4,5-trimethoxyphenyl)prop-1-en-1-yl)-1H-indole-2-carboxylate]",43.2 ± 0.2,24.5 ± 0.1,24.4 ± 0.1,6.4 ± 0.4,33.0 ± 2.1,23.2 ± 0.3,27.1 ± 0.5,14.3 ± 1.6,53.6 ± 0.3,16.5 ± 0.1,24.6 ± 0.3,4.5 ± 0.2,39.7 ± 1.1,17.6 ± 0.0,23.3 ± 0.1,17.9 ± 1.2,52.0 ± 0.9,14.3 ± 0.2,21.2 ± 0.7,10.8 ± 0.1,"% G1 (U-937 cells; U-937, 72 h, 10 µM): 44.5 ± 1.4 %; % G2-M (U-937 cells; U-937, 72 h, 10 µM): 14.1 ± 0.4%; % S (U-937 cells; U-937, 72 h, 10 µM): 21.4 ± 0.6%; % Sub-G1 (U-937 cells; U-937, 72 h, 10 µM): 18.4 ± 1.2 %; fold more potent than CA-4 [1]: 8–24 fold; IC50 ([1]; Homo sapiens, HT-29, HT29, 72–96 h, read-out: IC50, inhibition of proliferation): 0.16 ± 0.02 µM; Toxicity to normal PBMC [2]: devoid of significant cytotoxic activity; also recorded: no appreciable toxicity; Colchicine binding % ±SD (inhibition) [3]: 29 ± 5%; IC50 [4]: 5.7 ± 0.1 µM; fold less potent than CA-4 as inhibitor of tubulin polymerisation (bovine brain tubulin; ratio of tubulin assembly IC50 values): 10 fold; IC50 (bovine brain tubulin): 6.2 ± 0.6 µM"
"CCOC(=O)c1[nH]c2cc(OC)ccc2c1/C=C/C(=O)c1cc(OC)c(OC)c(OC)c1 [Compound 9f, (E)-Ethyl 6-methoxy-3-(3-oxo-3-(3,4,5-trimethoxyphenyl)prop-1-en-1-yl)-1H-indole-2-carboxylate]",42.7 ± 0.5,25.2 ± 0.1,24.6 ± 0.8,5.9 ± 0.3,36.7 ± 1.8,23.8 ± 0.4,25.5 ± 0.5,11.9 ± 1.6,51.0 ± 0.5,19.2 ± 0.5,24.0 ± 0.3,5.1 ± 0.1,47.1 ± 1.1,18.2 ± 0.1,23.4 ± 0.3,10.1 ± 0.6,53.1 ± 2.0,16.5 ± 0.6,22.3 ± 1.4,6.4 ± 0.6,"% G1 (U-937 cells; U-937, 72 h, 10 µM): 43.3 ± 1.7%; % G2-M (U-937 cells; U-937, 72 h, 10 µM): 15.0 ± 0.6%; % S (U-937 cells; U-937, 72 h, 10 µM): 21.2 ± 1.2%; % Sub-G1 (U-937 cells; U-937, 72 h, 10 µM): 19.0 ± 3.3 %; fold more potent than CA-4 [1]: 8–24 fold; Toxicity to normal PBMC [2]: devoid of significant cytotoxic activity; also recorded: no appreciable toxicity; Colchicine binding % ±SD (inhibition) [3]: 23 ± 1%; IC50 [4]: 6.5 ± 1.7 µM; IC50 (bovine brain tubulin): 17 ± 2 µM"
